Reference: US9695149B2, “1,2,6-substituted benzimidazoles as flap modulators” (JANSSEN PHARMACEUTICA NV, priority 2013, dated 2017)
Where a name gives a salt, the structure may show the parent alone.

Tests used:
[1] = system: leukotriene pathway in human whole blood; assay: Human whole blood assay (LTB4, A23187-stimulated); assay type: cell-based; details: human whole blood diluted 1:1 in RPMI, calcium ionophore A23187 7 μg/mL, 30 min
Experimental: (§1) The ability of the compounds of the present invention to treat a FLAP-mediated disease and/or disorder, or associated symptoms or complications thereof, was determined using the following procedures. Binding assay data represent the average value obtained from two different assay plates, with samples run in duplicate on each plate. Human whole blood assay data represent a single replicate on an assay plate using whole blood from at least one healthy donor.
An in vitro cellular assay was performed using human whole blood collected in heparin-containing tubes, which was used to test the ability of compounds to modulate the leukotriene pathway in human whole blood. The blood was diluted 1:1 in RPMI medium, pre-incubated for 15 min at 37° Celsius with test compounds at various concentrations, and then stimulated with calcium ionophore, A23187 (7 μg/mL), for 30 min at 37° Celsius. The samples were then centrifuged and plasma was removed. The plasma was diluted in assay buffer and LTB4 levels were measured using a commercial kit (Enzo Life Sciences). The concentration of each compound that was required for half-maximal inhibition (modulation) of […] (IC50) was calculated by a 4-parameter equation using the program GraphPad Prism (GraphPad software). For analysis, data are imported into 3DX and aggregated as the average of duplicates of the calculated ratios in order to calculate Ki and IC50 values. Numbers in parentheses are the number of runs for the assay.

human FLAP = human FLAP (Homo sapiens (Human), UniProt P20292); assay: FLAP binding assay (HTRF format); details: human FLAP-containing Sf-9 membranes, wild type; average of runs
human FLAP, sequence (P20292 whole entry): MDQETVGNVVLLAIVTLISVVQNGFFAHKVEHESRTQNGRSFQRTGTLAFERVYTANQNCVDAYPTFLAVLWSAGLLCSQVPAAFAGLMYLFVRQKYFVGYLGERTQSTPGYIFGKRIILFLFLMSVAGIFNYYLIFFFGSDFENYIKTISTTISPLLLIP
Experimental: as §1
The assay below is used to test the modulatory activity of compounds against FLAP. Human and mouse FLAP-encoding DNA was amplified by polymerase chain reaction and cloned into pFastBac1 (Invitrogen) with a NH2-terminal 6-His tag for expression in Spodoptera frugiperda (Sf-9) cells. FLAP-containing membranes were prepared as was a FITC-labeled FLAP modulator (3-(3-(tert-butylthio)-1-(4-chlorobenzyl)-5-(quinolin-2-ylmethoxy)-1H-indol-2-yl)-2,2-dimethylpropanoic acid). The FLAP binding assay is performed in HTRF format (homogeneous time resolved fluorescence). […] The reaction is allowed to proceed for two hours after which the plate is read on an Envision plate reader in HTRF mode. Data are expressed as a HTRF ratio.
For human FLAP binding assays, data are analyzed with 3DX Explorer software. […] For analysis, data from multiple runs are averaged and each compound may be tested in 2 to 20 runs. Each run comprises two plates and each plate includes duplicates. Data from each plate is averaged and data are imported into 3DX. The data from multiple runs are aggregated as the average of duplicates of the calculated ratios in order to calculate Ki and IC50 values. Numbers in parentheses are the number of runs for the assay.

Row | Structure (SMILES) | IC50 ([1]; Homo sapiens, 0.5 h) [nM] | Ki (human FLAP) [nM] | IC50 [1] [nM]
1 | Cc1ccc(COc2cc(F)c3nc(CC4(C(=O)O)CCCC4)n(Cc4ccccc4Br)c3c2)nc1 [Example 231, 1-({1-(2-Bromobenzyl)-4-fluoro-6-[(5-methylpyridin-2-yl)methoxy]-1H-benzimidazol-2-yl}methyl)cyclopentanecarboxylic acid as the trifluoroacetic salt] | > 30000 | 180 | 
2 | Cc1ccc(COc2cc(F)c3nc(CC4(C(=O)O)CCCC4)n(Cc4cccc(Br)c4)c3c2)nc1 [Example 230, 1-({1-(3-Bromobenzyl)-4-fluoro-6-[(5-methylpyridin-2-yl)methoxy]-1H-benzimidazol-2-yl}methyl)cyclopentanecarboxylic acid as the trifluoroacetic salt] | > 30000 | 73 | 
3 | CCC(CC)(Cc1nc2ccc(OCc3ccn(C)n3)cc2n1Cc1cccc(-c2cnc(OC)nc2)c1)C(=O)O [Example 213, 2-Ethyl-2-({1-[3-(2-methoxypyrimidin-5-yl)benzyl]-6-[(1-methyl-1H-pyrazol-3-yl)methoxy]-1H-benzimidazol-2-yl}methyl)butanoic acid] |  | ~940 | 
4 | Cc1ccc(COc2ccc3nc(CC(C)(C)C(=O)O)n(Cc4cc(Br)ccc4F)c3c2)nc1 [Example 225, 3-{1-(5-Bromo-2-fluorobenzyl)-6-[(5-methylpyridin-2-yl)methoxy]-1H-benzimidazol-2-yl}-2,2-dimethylpropanoic acid] |  | ~870 | 
5 | Cc1ccc(COc2ccc3nc([C@H]4CCCC[C@H]4C(=O)O)n(Cc4cc(Br)ccc4F)c3c2)nc1 (racemic) [Example 229, racemic-cis-2-{1-(5-Bromo-2-fluorobenzyl)-6-[(5-methylpyridin-2-yl)methoxy]-1H-benzimidazol-2-yl}cyclohexanecarboxylic acid] |  |  | 6640
6 | Cc1ccc(COc2ccc3nc(C4CCCC[C@H]4C(=O)O)n(Cc4cc(N5CCC(F)(F)CC5)ccc4F)c3c2)nc1 (mixture of isomers) [Example 208, racemic cis-2-{1-[5-(4,4-Difluoropiperidin-1-yl)-2-fluorobenzyl]-6-[(5-methylpyridin-2-yl)methoxy]-1H-benzimidazol-2-yl}cyclohexanecarboxylic acid] | 370 | 9.5 | 
7 | CCC(CC)(Cc1nc2ccc(OCc3ccn(C)n3)cc2n1Cc1cc(Br)ccc1F)C(=O)O [Example 234, 2-({1-(5-Bromo-2-fluorobenzyl)-6-[(1-methyl-1H-pyrazol-3-yl)methoxy]-1H-benzimidazol-2-yl}methyl)-2-ethylbutanoic acid] |  | > 10000 | 
8 | Cn1ccc(COc2ccc3nc(C4CCCC[C@H]4C(=O)O)n(Cc4cccc(C#N)c4)c3c2)n1 (mixture of isomers) [Example 199, racemic cis-2-{1-(3-Cyanobenzyl)-6-[(1-methyl-1H-pyrazol-3-yl)methoxy]-1H-benzimidazol-2-yl}cyclohexanecarboxylic acid] |  | ~2500 | 
9 | Cc1ccc(COc2ccc3nc(C4[C@H](C(=O)O)C4(C)C)n(Cc4cc(Br)ccc4F)c3c2)nc1 (mixture of isomers) [Example 227, racemic cis-3-{1-(5-Bromo-2-fluorobenzyl)-6-[(5-methylpyridin-2-yl)methoxy]-1H-benzimidazol-2-yl}-2,2-dimethylcyclopropanecarboxylic acid] | 4520 |  | 
10 | Cc1ccc(COc2ccc3nc(C4CCCC[C@H]4C(=O)O)n(Cc4cccc(N5CCCCC5)c4)c3c2)nc1 (mixture of isomers) [Example 224, racemic trans-2-{6-[(5-Methylpyridin-2-yl)methoxy]-1-(3-piperidin-1-ylbenzyl)-1H-benzimidazol-2-yl}cyclohexanecarboxylic acid] |  |  | 2170
11 | Cc1ccc(COc2ccc3nc(C4CCCC[C@H]4C(=O)O)n(Cc4cccc(Br)c4)c3c2)nc1 (mixture of isomers) [Example 217, racemic trans-2-{1-(3-Bromobenzyl)-6-[(5-methylpyridin-2-yl)methoxy]-1H-benzimidazol-2-yl}cyclohexanecarboxylic acid] |  | 60 | 
12 | CCC(CC)(Cc1nc2ccc(OCc3ccn(C)n3)cc2n1Cc1ccc(-c2cnc(OC)nc2)cc1F)C(=O)O [Example 214, 2-Ethyl-2-({1-[2-fluoro-4-(2-methoxypyrimidin-5-yl)benzyl]-6-[(1-methyl-1H-pyrazol-3-yl)methoxy]-1H-benzimidazol-2-yl}methyl)butanoic acid] |  | ~2500 | 
13 | Cc1ccc(COc2ccc3nc(C4[C@H](C(=O)O)C4(C)C)n(Cc4cccc(C)c4)c3c2)nc1 (mixture of isomers) [Example 202, racemic cis-2,2-Dimethyl-3-{1-(3-methylbenzyl)-6-[(5-methylpyridin-2-yl)methoxy]-1H-benzimidazol-2-yl}cyclopropanecarboxylic acid] |  | ~750 | 
14 | Cc1ccc(COc2ccc3nc(C4CCCC[C@H]4C(=O)O)n(Cc4cccc(N5CCC(F)(F)C5)c4)c3c2)nc1 (mixture of isomers) [Example 220, racemic cis-2-{1-[3-(3,3-Difluoropyrrolidin-1-yl)benzyl]-6-[(5-methylpyridin-2-yl)methoxy]-1H-benzimidazol-2-yl}cyclohexanecarboxylic acid] | 650 |  | 
15 | Cn1ccc(COc2ccc3nc(C4CCCC[C@H]4C(=O)O)n(Cc4cccc(Br)c4)c3c2)n1 (single isomer, unassigned) [Example 198, (1R*,2S*)-2-{1-(3-Bromobenzyl)-6-[(1-methyl-1H-pyrazol-3-yl)methoxy]-1H-benzimidazol-2-yl}cyclohexanecarboxylic acid] |  | > 10000 | 
16 | CCC(CC)(Cc1nc2ccc(OCc3ccc(C)cn3)cc2n1Cc1cccc(-c2cnc(OC)nc2)c1)C(=O)O [Example 196, 2-Ethyl-2-({1-[3-(2-methoxypyrimidin-5-yl)benzyl]-6-[(5-methylpyridin-2-yl)methoxy]-1H-benzimidazol-2-yl}methyl)butanoic acid] |  | ~500 | 
17 | Cc1ccc(COc2ccc3nc(CC(C)(C)C(=O)O)n(Cc4cccc(Br)c4)c3c2)nc1 [Example 232, 3-{1-(3-Bromobenzyl)-6-[(5-methylpyridin-2-yl)methoxy]-1H-benzimidazol-2-yl}-2,2-dimethylpropanoic acid as the trifluoroacetic acid salt] |  | ~750 | 
18 | Cc1ccc(COc2ccc3nc(C4[C@H](C(=O)O)C4(C)C)n(Cc4ccccc4C)c3c2)nc1 (mixture of isomers) [Example 210, racemic cis-2,2-Dimethyl-3-{1-(2-methylbenzyl)-6-[(5-methylpyridin-2-yl)methoxy]-1H-benzimidazol-2-yl}cyclopropanecarboxylic acid] |  | ~1750 | 
19 | CCC(CC)(Cc1nc2ccc(OCc3ccn(C)n3)cc2n1Cc1ccc(N2CCC(F)(F)C2)cc1)C(=O)O [Example 216, 2-({1-[4-(3,3-Difluoropyrrolidin-1-yl)benzyl]-6-[(1-methyl-1H-pyrazol-3-yl)methoxy]-1H-benzimidazol-2-yl}methyl)-2-ethylbutanoic acid] |  | ~180 | 
20 | Cc1ccc(COc2ccc3nc(C4CCCC[C@H]4C(=O)O)n(Cc4cc(Br)ccc4F)c3c2)nc1 (mixture of isomers) [Example 218, racemic trans-2-{1-(5-Bromo-2-fluorobenzyl)-6-[(5-methylpyridin-2-yl)methoxy]-1H-benzimidazol-2-yl}cyclohexanecarboxylic acid] | 4170 |  | 
21 | Cc1ccc(COc2ccc3nc(C4CCCC[C@H]4C(=O)O)n(Cc4cccc(N5CCCCC5)c4)c3c2)nc1 (mixture of isomers) [Example 223, racemic cis-2-{6-[(5-Methylpyridin-2-yl)methoxy]-1-(3-piperidin-1-ylbenzyl)-1H-benzimidazol-2-yl}cyclohexanecarboxylic acid] |  |  | 320
